Data published in patent US11229618B2 (Amarin Pharmaceuticals Ireland Limited, priority 2012, dated 2022).

Legend:
[1] = system: fasting TG levels; test: ANCHOR: fasting TG lowering and LDL-C; assay type: in vivo, human; conditions: for median percent reductions in TG from baseline, 4 g/day compared with 2 g/day: 12 weeks
Procedure: A multi-center, placebo-controlled, randomized, double-blind, 12-week study was performed to evaluate the efficacy and safety of >96% E-EPA in patients with fasting triglyceride levels≥200 mg/dl and <500 mg/dl despite statin therapy (the mean of two qualifying entry values needed to be ≥185 mg/dl and at least one of the values needed to be ≥200 mg/dl). The primary objective of the study was to determine the efficacy of >96% E-EPA 2 g daily and 4 g daily, compared to placebo, in lowering fasting TG levels in patients with high risk for cardiovascular disease and with fasting TG levels≥200 mg/dL and <500 mg/dL, despite treatment to LDL-C goal on statin therapy.
The primary efficacy variable for the double-blind treatment period was percent change in TG from baseline to Week 12 endpoint. The secondary efficacy variables for the double-blind treatment period included the following: • Percent changes in total cholesterol (TC), high-density lipoprotein cholesterol (HDL-C), LDL-C, calculated non-HDL-C, and very low-density lipoprotein cholesterol (VLDL-C) from baseline to Week 12 endpoint; • Percent change in very low-density lipoprotein TG from baseline to Week 12; • Percent changes in apolipoprotein A-I (apo A-I), apolipoprotein B (apo B), and apo A-I/apo B ratio from baseline to Week 12; • Percent changes in lipoprotein(a) from baseline to Week 12; • Percent changes in LDL particle number and size, measured by nuclear magnetic resonance, from baseline to Week 12; • Percent change in remnant-like particle cholesterol from baseline to Week 12; • Percent change in oxidized LDL from baseline to Week 12; • Changes in FPG and HbA1c from baseline to Week 12; • Change in insulin resistance, as assessed by the homeostasis model index insulin resistance, from baseline to Week 12; • Percent change in lipoprotein associated phospholipase A2 (Lp-PLA2) from baseline to Week 12; • Change in intracellular adhesion molecule-1 from baseline to Week 12; • Change in interleukin-2 from baseline to Week 12; • Change in plasminogen activator inhibitor-1 from baseline to Week 12. Note: this parameter will only be collected at sites with proper storage conditions; • Change in hsCRP from baseline to Week 12; and • Change in plasma concentration and red blood cell membrane content of fatty acid from baseline to Week 12 including EPA, docosapentaenoic acid (DPA), docosahexaenoic acid (DHA), arachidonic acid (AA), dihomo-γ-linolenic acid (DGLA), the ratio of EPA/AA, ratio of oleic acid/stearic acid (OA/SA), and the ratio of total omega-3 acids over total omega-6 acids.
The primary efficacy analysis was performed using a 2-way analysis of covariance (ANCOVA) model with treatment as a factor and baseline TG value as a covariate. […]

[2] = MARINE: plasma fatty acid concentrations, ratios and class proportions (GC/FID); assay type: in vivo, human; conditions: for Mono-unsaturated, proportion to total fatty acids, Mean placebo-adjusted percent change from baseline / Total omega-6, proportion to total fatty acids, Mean placebo-adjusted percent change from baseline / Saturated, proportion to total fatty acids, Mean placebo-adjusted percent change from baseline / Total omega-3, proportion to total fatty acids, Mean placebo-adjusted percent change from baseline: Plasma; for Palmitic Mean placebo-adjusted percent change from baseline / Oleic Mean placebo-adjusted percent change from baseline / Stearic Mean placebo-adjusted percent change from baseline / Linoleic Mean placebo-adjusted percent change from baseline / DHA Mean placebo-adjusted percent change from baseline / AA Mean placebo-adjusted percent change from baseline / DPAn-3 Mean placebo-adjusted percent change from baseline: plasma, week 12
Procedure: A multi-center, placebo-controlled randomized, double-blind, 12-week study with an open-label extension is performed to evaluate the efficacy and safety of AMR101 in patients with fasting triglyceride levels≥500 mg/dL. The primary objective of the study is to determine the efficacy of AMR101 2 g daily and 4 g daily, compared to placebo, in lowering fasting TG levels in patients with fasting TG levels≥500 mg/dL and ≤1500 mg/dL (≥5.65 mmol/L and ≤16.94 mmol/L).
Eligible patients will be randomly assigned at Visit 4 (Week 0) to receive orally AMR101 2 g daily, AMR101 4 g daily, or placebo for the 12-week double-blind treatment period. AMR101 is provided in 1 g liquid-filled, oblong, gelatin capsules. The matching placebo capsule is filled with light liquid paraffin and contains 0 g of AMR101. During the double-blind treatment period, patients will take 2 capsules (AMR101 or matching placebo) in the morning and 2 in the evening for a total of 4 capsules per day. Patients in the AMR101 2 g/day treatment group will receive 1 AMR101 1 g capsule and 1 matching placebo capsule in the morning and in the evening. Patients in the AMR101 4 g/day treatment group will receive 2 AMR101 1 g capsules in the morning and evening.
Lipids were extracted from plasma and RBC suspensions and converted into fatty acid methyl esters for analysis using a standard validated gas chromatography/flame ionization detection method. Fatty acid parameters were compared between EPA treatment groups and placebo using an ANCOVA model with treatment, gender, type of statin therapy, and presence of diabetes as factors, and the baseline parameter value as a covariate. LSMs, SEs, and 2-tailed 95% confidence intervals for each treatment group and for each comparison were determined.
The monounsaturated fatty acid group included myristoleic, palmitoleic, cis-vaccenic, oleic, gondoic/gadoleic, erucic and nervonic acids. The saturated fatty acid group included myristic, palmitic, stearic, arachidic, behenic and lignoceric acids. The “total omega-3” group included α-linolenic, stearidonic, eicosatrienoic, ω-3 arachidonic, eicosapentaenoic, ω-3 docosapentaenoic and docosahecaenoic acids. The “total omega-6” group included linoleic, γ-linolenic, eicosadienoic, dihomo-γ-linolenic, ω-6 arachidonic, adrenic, and ω-6 docosapentaenoic acids. The “total fatty acid” group represented the sum of the monounsaturated, saturated, total omega-3 and total omega-6 groups.

[3] = IPE 2 g/day vs placebo, P <0.0001
[4] = IPE 4 g/day vs placebo, P <0.0001

Structure (SMILES): CC/C=C\C/C=C\C/C=C\C/C=C\C/C=C\CCCC(=O)OCC [IPE, all-cis eicosa-5,8,11,14,17-pentaenoic acid ethyl ester]
- effect on LDL-C [1]: without raising LDL-C
- median percent reductions in TG from baseline, 4 g/day compared with 2 g/day [1]: higher with IPE 4 g/day than with 2 g/day
- median percent reductions in TG from baseline, 4 g/day compared with 2 g/day ([1]; listed as EPA): higher for subjects administered about 4 grams of EPA per day
- effect on TG levels ([1]; patients with high TG levels on statin therapy): significantly reduced TG levels
- Mono-unsaturated, proportion to total fatty acids, Mean placebo-adjusted percent change from baseline ([2]; IPE 2 g/day vs placebo, P 0.0009): −7.4%
- Total omega-6, proportion to total fatty acids, Mean placebo-adjusted percent change from baseline ([2]; IPE 2 g/day vs placebo, P 0.3044): 3.2%
- Saturated, proportion to total fatty acids, Mean placebo-adjusted percent change from baseline ([2]; IPE 2 g/day vs placebo, P 0.8076): −0.4%
- Total omega-3, proportion to total fatty acids, Mean placebo-adjusted percent change from baseline [2, 3]: 68.4%
- Mono-unsaturated, proportion to total fatty acids, Mean placebo-adjusted percent change from baseline ([2]; IPE 4 g/day vs placebo, P 0.0008): −7.7%
- Saturated, proportion to total fatty acids, Mean placebo-adjusted percent change from baseline ([2]; IPE 4 g/day vs placebo, P 0.1049): −2.8%
- Total omega-6, proportion to total fatty acids, Mean placebo-adjusted percent change from baseline ([2]; IPE 4 g/day vs placebo, P 0.8846): 0.5%
- Total omega-3, proportion to total fatty acids, Mean placebo-adjusted percent change from baseline [2, 4]: 132.7%
- Palmitic Mean placebo-adjusted percent change from baseline ([2]; IPE 2 g/day vs placebo, P 0.0011): −23.9%
- Oleic Mean placebo-adjusted percent change from baseline ([2]; IPE 2 g/day vs placebo, P 0.0023): −23.8%
- Stearic Mean placebo-adjusted percent change from baseline ([2]; IPE 2 g/day vs placebo, P 0.0040): −20.7%
- Linoleic Mean placebo-adjusted percent change from baseline ([2]; IPE 2 g/day vs placebo, P 0.0136): −15.2%
- DHA Mean placebo-adjusted percent change from baseline ([2]; IPE 2 g/day vs placebo, P 0.7217): −2.3%
- AA Mean placebo-adjusted percent change from baseline [2, 3]: −16.4%
- DPAn-3 Mean placebo-adjusted percent change from baseline [2, 3]: 107.2%
- Oleic Mean placebo-adjusted percent change from baseline ([2]; IPE 4 g/day vs placebo, P 0.0001): −31.9%
- Stearic Mean placebo-adjusted percent change from baseline ([2]; IPE 4 g/day vs placebo, P 0.0002): −28.4%
- Linoleic Mean placebo-adjusted percent change from baseline ([2]; IPE 4 g/day vs placebo, P 0.0003): −23.7%
- DHA Mean placebo-adjusted percent change from baseline ([2]; IPE 4 g/day vs placebo, P 0.7115): 2.4%
- AA Mean placebo-adjusted percent change from baseline [2, 4]: −26.8%
- DPAn-3 Mean placebo-adjusted percent change from baseline [2, 4]: 150.8%
- Palmitic Mean placebo-adjusted percent change from baseline [2, 4]: −34.4%
